Data from PubChem BioAssay (NCI).
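Five compound concentrations were applied to cells in 96-well plates for 48 hours; endpoints were derived by simple linear interpolation of the resulting dose-response curve. TGI denotes the concentration required for complete inhibition of growth.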

Legend:
Experiment in all cases: NCI anticancer screen, dose series, 48 h
ACHN renal = tested on: ACHN renal
NCI-H522 lung = tested on: NCI-H522 lung
MALME-3M melanoma = tested on: MALME-3M melanoma
LOX IMVI melanoma = tested on: LOX IMVI melanoma
SR leukemia = tested on: SR leukemia
HCT-116 colon = tested on: HCT-116 colon
SK-OV-3 ovarian = tested on: SK-OV-3 ovarian
HT29 colon = tested on: HT29 colon
COLO 205 colon = tested on: COLO 205 colon
IGROV1 ovarian = tested on: IGROV1 ovarian
NCI/ADR-RES ovarian = tested on: NCI/ADR-RES ovarian

Compound | TGI (ACHN renal) | TGI (NCI-H522 lung) | TGI (MALME-3M melanoma) | TGI (LOX IMVI melanoma) | TGI (SR leukemia) | TGI (HCT-116 colon) | TGI (SK-OV-3 ovarian) | TGI (HT29 colon) | TGI (COLO 205 colon) | TGI (IGROV1 ovarian) | TGI (NCI/ADR-RES ovarian)
COc1cc(C2SCC(=O)N2c2ccc(Cl)c(Cl)c2)cc(OC)c1OC (stereo not given) | > 100 µM | > 100 µM | > 100 µM | > 100 µM | 83.8 µM | > 100 µM | > 100 µM | > 100 µM | > 100 µM | > 100 µM | > 100 µM
C[C@@H]1CCC2[C@@H](C)[C@@H](OCCO[C@H]3OC4O[C@@]5(C)CCC6[C@H](C)CCC([C@H]3C)[C@@]46OO5)OC3O[C@@]4(C)CCC1[C@]32OO4 (stereo not given in full) | > 100 µM | > 100 µM | > 100 µM | > 40.5 µM | > 100 µM | > 100 µM | > 100 µM | > 100 µM | 0.304 µM | > 100 µM | 3.14 µM
CC(C)(C)c1cc(C(=O)/C=C/C=C/c2ccccc2)cc(C(C)(C)C)c1O | > 100 µM | 52.5 µM | > 100 µM | 50.9 µM | 13.4 µM | 44.9 µM | > 100 µM | > 89.9 µM | 34.9 µM | > 100 µM | 30.5 µM
S=c1[nH]n2c(COc3cccc(OCc4nnc5sc(=S)[nH]n45)c3)nnc2s1 | > 100 µM | > 100 µM | > 100 µM | > 100 µM | > 100 µM | > 100 µM | > 100 µM | > 100 µM | > 100 µM | > 100 µM | > 100 µM
O=C(NS(=O)(=O)OCC(Cl)(Cl)Cl)SCCC(F)(F)C(F)(F)C(F)(F)C(F)(F)C(F)(F)C(F)(F)F | > 100 µM | 41.8 µM | 37.7 µM | 45.6 µM | > 100 µM | 40.8 µM | 32.1 µM | 35.6 µM | 33.5 µM | > 100 µM | 48.1 µM
